Measurements reported in US20060099220A1, “Antibodies against and methods for producing vaccines for respiratory syncytial virus” (MEDIMMUNE, INC., priority 2004, published 2006).
Where “and” joins values, the source holds several entries; their conditions need not be identical. Identical values can stand only once. Where no end group is shown, it is not given here.

Columns and labels:
[1] = molecular target: Numax™ (MEDI-524) (Homo sapiens, UniProt P01834+P01857); assay: Binding ELISA of F-peptides; conditions: peptide coated on plate, MEDI-524 detected with anti-human IgG-HRP
Experimental: Based in part upon the results of the MARM analysis above, F peptides were synthesized (done by AnaSpec, Inc. San Jose, Calif.). Each well of the assay plate was coated with […] of […] of a particular soluble RSV F-Peptide overnight at 2-8° C. After the plate was aspirated and washed with PBS/0.05% Tween-20 buffer, it was blocked by incubating with PBS/0.05% Tween-20/0.5% BSA buffer for one hour at ambient temperature. The plate was washed and MEDI-524 standard curve samples, test samples, MEDI-524 Reference Standard, and negative control were added to the washed plate. Following a one-hour incubation at ambient temperature, the plate was washed, and […] of a goat anti-human IgG-HRP (horseradish peroxidase) at 1:16,000 dilution was added to the plate. After washing, […] of 3,3′,5,5′-tetramethylbenzidine (TMB) substrate was then added to the plate and incubated at ambient temperature protected from light for 10 minutes. The enzymatic reaction was stopped by adding […] of 2N H2SO4, and the absorbance at 450 nm was measured using a microplate reader. […] After meeting all system suitability requirements, as well as meeting the criteria of the parallelism test, the ED50 ratio of the test sample to Reference Standard was calculated, and the results were expressed as a percentage of the Reference Standard binding activity. […]

[2] = molecular target: Numax™ (Homo sapiens, UniProt P01834+P01857); assay: Biacore kinetic analysis of F peptides on captured Numax™; format: binding; conditions: F peptide 100 nM over captured Numax™, Biacore 3000
Experimental: All studies were performed using Sensor Chip CM5 (Biacore AB, Uppsala, Sweden) which contains a carboxymethyl (CM) dextran matrix and a Biacore® 3000 surface plasmon resonance (SPR) biosensor (Biacore AB, Uppsala, Sweden).
Numax™ was captured via a high-affinity interaction between the Fc portion of Numax™ and a goat anti-human IgG(Fc) (KPL, Inc., Gaithersburg, Md.). Goat anti-human IgG(Fc) was covalently attached to the CM dextran matrix using amine coupling chemistry. Two anti-human IgG(Fc)-specific surfaces were created. Numax™ was diluted to 10.9 μg/mL with HBS-EP and flowed for 1 min. across one of the anti-human IgG (Fc) surfaces at a flow rate of 5 μL/min. The other anti-human IgG(Fc) surface was used as a reference surface. F peptide was prepared by dilution in HBS-EP (0.01 M Hepes pH 7.4, 0.15 M NaCl, 3 mM EDTA, 0.005% surfactant P20) to a final concentration of 100 nM. F peptide was injected for 1 min. in a serial-flow manner across the reference surface and the Numax™-specific surface. Dissociation of bound F peptide was monitored for 2 min in the presence of HBS-EP. After this dissociation period, Numax™ and F peptide were removed with a 30-sec injection of 10 mM glycine pH 1.7 (Biacore AB, Uppsala, Sweden). Because of the removal of Numax™, it was necessary to create a new Numax™-specific surface prior to the injection of each F peptide.

[3] = molecular target: T1, MEDI-524 Fab (Homo sapiens, UniProt P01834+P01857); assay: Isothermal titration calorimetry (ITC) of F peptides with MEDI-524 Fab; format: binding; conditions: at 18° C., 25 mM His, pH 6.07
T1 construct: 0.088 mg/mL (1.88 μM-46.3 KDa) of MEDI-524 Fab
Experimental: For this set of experiments, […] (1.16 μM-148.4 KDa) of MEDI-524 Mab and 0.088 mg/mL (1.88 μM-46.3 KDa) of MEDI-524 Fab, both in 25 mM His, pH 6.07 were used. On the other hand, 250 μL of 1 mg/mL of the different peptides dissolved in H2O, were provided by ABC. The peptides were then diluted into the appropriate volume of buffer to give a final concentration of 50 μM. The ITC experiments were run at 18° C. with the macromolecule (Mab or Fab) in the cell, by doing ˜26 injections of 10 μL of peptides, spaced 360 sec with constant stirring. The data fitting was accomplished by subtracting the average value of the few last injections as the buffer and unspecific heat of dilution contributions. […] A note apart is the fact that the observed binding capacity (N) increases with the length of the peptide, indicating possibly an extra conformational factor in the binding event. The entropic contribution: For the peptides SEQ ID NOs.24 and 26, the entropic factor seems to be similar; the extra amino acids at the end of the N-terminal seems not to affect greatly the binding parameters. On the other hand, the elongation at the C-terminal seems to decrease slightly the binding enthalpy, the binding constant, as well as the entropic factor. […] The binding constant seems to be smaller (weaker) for both 30-mer peptides respect to the 26-mer.

[4] = system: MEDI-524 Mab; assay: Isothermal titration calorimetry (ITC) of F peptides with MEDI-524 Mab; format: binding; conditions: 25 mM His, pH 6 at 10° C.
Experimental: To evaluate the binding properties of the wild-type peptide (SEQ ID NO.28) to Numax™/MEDI-524 by using the ITC technique. The MEDI-524 Mab was titrated with SEQ ID NO.28 in the basis buffer 25 mM His, pH 6 at 10° C. SEQ ID NO.28: (MW=2732.14, no W, Y, or C). A working solution of 55 μM was prepared by diluting 30 μL of a 5 mg/mL peptide solution with 970 μL of 25 mM His, pH 6 buffer to be used for the ITC titrations. A 1.15 μM (0.1706 mg/ml) working solution of MEDI-524 was used for the experiments (MW 148400, A280=1.47).
For this set of experiments, […] (1.16 μM-148.4 KDa) of MEDI-524 Mab and 0.088 mg/mL (1.88 μM-46.3 KDa) of MEDI-524 Fab, both in 25 mM His, pH 6.07 were used. On the other hand, 250 μL of 1 mg/mL of the different peptides dissolved in H2O, were provided by ABC. The peptides were then diluted into the appropriate volume of buffer to give a final concentration of 50 μM. The ITC experiments were run at 18° C. with the macromolecule (Mab or Fab) in the cell, by doing ˜26 injections of 10 μL of peptides, spaced 360 sec with constant stirring. The data fitting was accomplished by subtracting the average value of the few last injections as the buffer and unspecific heat of dilution contributions. […]

[5] = system: RSV MARMs #6 and NuMARM3 (F protein K272E); assay: Microneutralization assay of K272E MARMs; conditions: for Neutralization of RSV: residue 272 altered from lysine (K) to glutamic acid (E)
[6] = system: RSV MARM B1 (F protein K272N); assay: Microneutralization assay of monoclonal antibody resistant mutant (MARM) B1; conditions: selection Synagis ®
[7] = system: RSV MARM #10 (F protein K272E, N276Y); assay: Microneutralization assay of MARM #10; conditions: MARM #10, K272E and N276Y, selection A4b4
[8] = system: RSV MARM B7 (F protein K272T); assay: Microneutralization assay of MARM B7; conditions: selection Synagis ®
[9] = system: RSV MARM B2 (F protein K272M); assay: Microneutralization assay of MARM B2; conditions: selection Synagis ®
[10] = system: RSV MARM B9 (F protein K272Q); assay: Microneutralization assay of MARM B9; conditions: selection Synagis ®
[11] = system: RSV MARM #13 (F protein N262K, K272Q); assay: Microneutralization assay of MARM #13; conditions: MARM #13, N262K and K272Q, selection Synagis ® then A4b4
[12] = molecular target: RSV F protein; assay: BIAcore analysis of Numax Ref. Std.; format: binding; conditions: Numax reference standard
Text: BIAcore analysis can measure the kinetic interactions of anti-RSV antibodies with RSV F peptides by surface plasmon resonance using a BIAcore 1000, 2000, or 3000 instrument (Biacore, Uppsala, Sweden). Purified recombinant, C-terminally truncated F protein was covalently coupled to a (1-ethyl-3-[3-dimethylaminopropyl]carbodiimide hydrochloride)/N-hydroxysuccinimide-activated CM5 sensor chip at a low protein density (see Johnsson et al. (1991) Anal. Biochem. 198, 268-277). The unreacted active ester groups were blocked with 1 M ethanolamine. For use as a reference, when the BIAcore 2000 or 3000 instrument was used, a blank surface, containing no antigen, was prepared under identical immobilization conditions. To minimize binding variations caused by different lots of F proteins, most of the antibodies were measured against the same lot of F protein. In several cases when different lots of F proteins were used, their binding to an anti-RSV antibody was used as a reference to make sure that these lots had similar binding characteristics to the lot that is used mainly. A serial 2-fold dilution series of purified antibodies, ranging from 0.2 to 100 nm in HBS/Tween 20 buffer (BIAcore), was injected over the F-protein and reference cell surfaces, which were connected in series. In each measurement, the residual antibody was removed from the sensor chip by a brief pulse of 100 mM HCl. The binding curves were globally fitted to a 1:1 Langmuir binding model using the BIAevaluation program. This algorithm calculates both kon and koff. The apparent equilibrium dissociation constant, Kd, was deduced as the ratio of the two rate constants, koff/kon.

[13] = system: RSV with F protein mutations at position 272 other than K272E; assay: Microneutralization assay of MARMs, other mutations at position 272; conditions: all other mutations indicated at position 272
[14] = MARM NuMARM3, K272E, selection Numax ™

T1 sequence (P01857 with tags, fused parts or gaps limits assumed, other chains not shown): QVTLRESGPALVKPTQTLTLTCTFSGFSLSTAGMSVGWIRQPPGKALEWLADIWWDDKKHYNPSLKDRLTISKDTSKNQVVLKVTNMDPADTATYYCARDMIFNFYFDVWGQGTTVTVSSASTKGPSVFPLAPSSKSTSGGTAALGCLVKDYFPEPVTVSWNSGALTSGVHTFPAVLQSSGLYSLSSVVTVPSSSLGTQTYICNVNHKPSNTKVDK
Sequence of Numax™ (P01857 with tags, fused parts or gaps limits assumed, other chains not shown): as above
Sequence of Numax™ (MEDI-524) (P01857 with tags, fused parts or gaps limits assumed, other chains not shown): as above

Molecule	ka [2]	kd [2]	Kd [2]	Ka (association constant) [3]	ΔHbinding [3]	ΔSbinding [3]	Neutraliz by antibody ? ([5]; MARM #6, K272E, selection A4b4)	Neutraliz by antibody ? [5, 14]	Neutralization of RSV [5]	Neutraliz by antibody ? [6]	Neutraliz by antibody ? [7]	Neutraliz by antibody ? [8]	Neutraliz by antibody ? [9]	Neutraliz by antibody ? [10]	Neutraliz by antibody ? [11]	other results
F peptide with a histidine at position 262: F peptide with histidine at position 262 tested in the Numax binding ELISA; probably SEQ ID No. 13 (NSELLSLIHDMPITNDQKKLMSNN; Derived from respiratory syncytial virus sequence)																Binding to Numax™ compared with wild-type F protein epitope (SEQ ID NO.1) [1]: more tightly
NSELLSLIHDMPITNDQKKLMSNNVQIVRQ-NH2 (C-terminus assumed) [SEQ ID NO: 25]	2.50E+05 and 3.62E+05	1.81E−03 and 1.97E−03	7.23 nM and 5.44 nM	6.5e+06 M⁻¹	-10.4 kcal/mol	−4.7										
NSELLSLINDMPITNDQKKLMSNN-NH2 [SEQ ID NO.28]																binding strength compared to the SEQ ID NO.24 peptide [4]: ~3 orders of magnitude lower
STYMLTNSELLSLIHDMPITNDQKKLMSNN-NH2 (C-terminus assumed) [SEQ ID NO: 26]	2.43E+05	5.52E−03	22.7 nM	7.1e+06 M⁻¹	-11.4 kcal/mol	−8.1										
Synagis ®: humanized RSV monoclonal antibody directed against the F glycoprotein of RSV [reference compound]							No	No	longer neutralized RSV	No	No	No	No	No	No	Neutraliz by antibody ? ([11]; listed as Synagis®): lost their ability to neutralize
Numax ™: enhanced potency RSV-specific monoclonal antibody derived by in vitro affinity maturation of palivizumab (antibody, listed as Chimaera sp., V domains shown) VH: QVTLRESGPALVKPTQTLTLTCTFSGFSLSTAGMSVGWIRQPPGKALEWLADIWWDDKKHYNPSLKDRLTISKDTSKNQVVLKVTNMDPADTATYYCARDMIFNFYFDVWGQGTTVTVSS VL: DIQMTQSPSTLSASVGDRVTITCSASSRVGYMHWYQQKPGKAPKLLIYDTFFLDSGVPSRFSGSGSGTEFTLTISSLQPDDFATYYCFQGSGYPFTFGGGTKVEIK							No	No	longer neutralized RSV	Yes	No	Yes	Yes	Yes	No	Kd [12]: 0.004 nM; ka [12]: 4.70E+05; kd [12]: 1.88E−06; Ability to neutralize RSV [13]: retain its ability to neutralize; Neutraliz by antibody ? ([10]; listed as Numax™): did not knock out Numax™ neutralization; Neutraliz by antibody ? ([11]; listed as Numax™): lost their ability to neutralize
